Experimental data: patent publication US20110100079A1, “METHOD FOR IMPARTING STRESS TOLERANCE TO PLANT” (priority 2007, published 2011)

Experiments:
Format in all cases: in vivo
“Momotaro” tomato = assay: Example 2 temperature stress tolerance imparting test (tomato); settings: leaf, 2 weeks
Method: Other cultivation conditions were the same as the conditions of the temperature stress test. […] (2) Solution culture medium: […] Method of Temperature Stress Tolerance Imparting Test The temperature in a climatic chamber was controlled so as to be 10, 15, or 32° C. The environmental conditions were controlled so as to have an illuminance by a fluorescent light of 5000 Lux and a daily light-dark cycle of a 16-hour light period and a 8-hour dark period. In this test, a temperature of 23° C. at which the optimum growth was observed was regarded as a reference temperature (temperature stress-free test condition), and a stress was imposed by applying a temperature higher or lower than the reference temperature. A tomato as prepared above was planted in a 250 ml polyethylene bottle filled with the solution culture medium (½ Otsuka A formulation). A treatment solution as presented in Table 1 was sprayed onto the leaves or applied to the underground portion. […] Ten specimens were prepared for each of the test plot and the control plots, and a plant stress level and an extent of imparting plant stress tolerance were calculated according to Formula (ii) and (iii) above using as a fresh plant body weight the average of the fresh plant body weights of each specimen 2 weeks after the beginning of the test.

[1] = tested on: Potato Variety: Toyoshiro; assay: Example 5 drying stress tolerance imparting test (potato variety Toyoshiro); settings: 3 weeks
Method: Other cultivation conditions were the same as the conditions of the drying stress test. Drying stress conditions: soil pF value: 2.3, 2.5, or 2.9, cultivation temperature: 23° C., relative humidity: 50%, illuminance: 5000 Lux (fluorescent light), light/dark cycle: 16 hours/8 hours (2) Cultivation Period: 3 weeks (3) Soil: Kureha gardening soil manufactured by Kureha Corporation (fertilizer components: N:P:K=0.4:1.9:0.6 g/kg soil) (4) The chemicals used and the amount of a treatment solution applied were the same as in Example 3. Method of Drying Stress Tolerance Imparting Test A planter (60 cm) was filled with Kureha gardening soil manufactured by Kureha Corporation (fertilizer components: N:P:K=0.4:1.9:0.6 g/kg soil) in a glass greenhouse, tubers of a “Thyoshiro” potato were cut in half: and 5 pieces thereof were planted in the planter, thinly covered with Kureha gardening soil, and sufficiently watered to allow the tubers to sprout. When the leaves in the 3-leaf stage fully unfolded, the Solarium tuberosu was relocated on a plant culture rack in an air-conditioned room, and a test was initiated. […] From immediately after the beginning of the test, a treatment solution of Table 1 was sprayed onto the leaves or applied to the underground portions once a week. […] Five specimens (per planter) were prepared for each of the test plot and the control plots, plant bodies were collected 3 weeks after the beginning of the test such that the roots were not cut, the soil was washed away with running water, the fresh plant body weights were measured, and a plant stress level and an extent of imparting plant stress tolerance were calculated according to Formula (ii) and (iii) above using the average of the weights.

tomato [2] = assay: Example 7 drying stress test (tomato), soil culture; settings: 23° C., 100 ppm, 2 weeks; for Fresh weight, relative value (untreated plot = 100), Comparison 1: stress-free: tomato soil culture, EC 1, pF 1.7, two-leaf stage; for Fresh weight, relative value (untreated plot = 100), Test 1 / Fresh weight, relative value (untreated plot = 100), Test 4 / Fresh weight, relative value (untreated plot = 100), Test 2 / Fresh weight, relative value (untreated plot = 100), Test 3: tomato soil culture; for Fresh weight, relative value (untreated plot = 100), Test 1: EC 1, pF 2.8, two-leaf stage; for Fresh weight, relative value (untreated plot = 100), Test 4: EC 1, pF 3.5, five-leaf stage; for Fresh weight, relative value (untreated plot = 100), Test 2: EC 1, pF 3.5, two-leaf stage; for Fresh weight, relative value (untreated plot = 100), Test 3: EC 1, pF 4.1, two-leaf stage
Method: (§1) The environmental conditions in a climatic chamber were controlled so as to have a temperature of 23° C., an illuminance by a fluorescent light of 5000 Lux, and a daily light-dark cycle of a 16-hour light period and an 8-hour dark period. Tomatoes as prepared above were transplanted in size-3 (9 cm) pots. During the test period, the pF value was controlled by adding a suitable amount of tap water once a day so as to attain a specific drying stress value. A treatment solution containing a compound of Table 1 in a specific concentration (the remainder was water) was prepared and sprayed onto the leaves or applied to the underground portions. […] A comparative example was constructed to reflect the drying stress-free optimum cultivation conditions to investigate the plant energizing ability. […] Moreover, when the products of the present invention and the comparative products were compared, the stress tolerance imparting ability of the products of the present invention was higher in respective drying stress conditions.

tomato [3] = assay: Example 8 temperature stress test (tomato), soil culture; settings: 100 ppm, 2 weeks; for Fresh weight, relative value (untreated plot = 100), Comparison 1: stress-free: tomato soil culture, cultivation temperature 23, EC 1, pF 1.7, two-leaf stage; for Fresh weight, relative value (untreated plot = 100), Test 1 / Fresh weight, relative value (untreated plot = 100), Test 2 / Fresh weight, relative value (untreated plot = 100), Test 3 / Fresh weight, relative value (untreated plot = 100), Test 4: tomato soil culture; for Fresh weight, relative value (untreated plot = 100), Test 1: cultivation temperature 10, EC 1, pF 1.7, two-leaf stage; for Fresh weight, relative value (untreated plot = 100), Test 2: cultivation temperature 16, EC 1, pF 1.7, two-leaf stage; for Fresh weight, relative value (untreated plot = 100), Test 3: cultivation temperature 29, EC 1, pF 1.7, two-leaf stage; for Fresh weight, relative value (untreated plot = 100), Test 4: cultivation temperature 35, EC 1, pF 1.7, two-leaf stage
Method: as §1, with “Other Conditions were as in Example 5. The” for “The”, “have” for “have a temperature of 23° C.,”, “Lux,” for “Lux, and”, “period, and various temperatures.” for “period.”, “pots.” for “pots. During the test period, the pF value was controlled by adding a suitable amount of tap water once a day so as to attain a specific drying stress value.”, “temperature” for “drying”

[4] = pF 2.3, leaf, 100 ppm once a week
[5] = pF 2.3, leaf, 200 ppm once a week

Sucrose fatty acid ester (C18, HLB = 9) [Product of present invention 18]
Extent of imparting plant stress tolerance (“Momotaro” tomato; 32° C., 100 ppm): 113% | Extent of imparting plant stress tolerance [1, 4]: 115%

C[N+](C)(C)CC(=O)[O-] [Comparative product 3, Glycine betaine, reference compound]
Fresh weight, relative value (untreated plot = 100), Comparison 1 (tomato [2]; leaf): 102 | Fresh weight, relative value (untreated plot = 100), Test 1 (tomato [2]; leaf): 102 | Fresh weight, relative value (untreated plot = 100), Test 4 (tomato [2]; leaf): 101 | Fresh weight, relative value (untreated plot = 100), Test 2 (tomato [2]; leaf): 103 | Fresh weight, relative value (untreated plot = 100), Test 3 (tomato [2]; leaf): 103 | Extent of imparting plant stress tolerance (“Momotaro” tomato; 32° C., 100 ppm): 102% | Fresh weight, relative value (untreated plot = 100), Comparison 1 (tomato [3]; leaf): 102 | Fresh weight, relative value (untreated plot = 100), Test 1 (tomato [3]; leaf): 100 | Fresh weight, relative value (untreated plot = 100), Test 2 (tomato [3]; leaf): 100 | Fresh weight, relative value (untreated plot = 100), Test 3 (tomato [3]; leaf): 101 | Fresh weight, relative value (untreated plot = 100), Test 4 (tomato [3]; leaf): 101 | Extent of imparting plant stress tolerance [1, 4]: 102%

O=C(O)[C@@H]1CCCN1 [Comparative product 2, Proline, reference compound]
Fresh weight, relative value (untreated plot = 100), Comparison 1 (tomato [2]; leaf): 101 | Fresh weight, relative value (untreated plot = 100), Comparison 1 (tomato [2]; underground portion): 102 | Fresh weight, relative value (untreated plot = 100), Test 1 (tomato [2]; leaf): 102 | Fresh weight, relative value (untreated plot = 100), Test 1 (tomato [2]; underground portion): 102 | Fresh weight, relative value (untreated plot = 100), Test 4 (tomato [2]; leaf): 101 | Fresh weight, relative value (untreated plot = 100), Test 4 (tomato [2]; underground portion): 100 | Fresh weight, relative value (untreated plot = 100), Test 2 (tomato [2]; leaf): 102 | Fresh weight, relative value (untreated plot = 100), Test 2 (tomato [2]; underground portion): 103 | Fresh weight, relative value (untreated plot = 100), Test 3 (tomato [2]; leaf): 101 | Fresh weight, relative value (untreated plot = 100), Test 3 (tomato [2]; underground portion): 101 | Extent of imparting plant stress tolerance (“Momotaro” tomato; 10° C., 100 ppm): 102% | Extent of imparting plant stress tolerance (“Momotaro” tomato; 15° C., 100 ppm): 102% | Extent of imparting plant stress tolerance (“Momotaro” tomato; 32° C., 100 ppm): 102% | Fresh weight, relative value (untreated plot = 100), Comparison 1 (tomato [3]; leaf): 101 | Fresh weight, relative value (untreated plot = 100), Comparison 1 (tomato [3]; underground portion): 102 | Fresh weight, relative value (untreated plot = 100), Test 1 (tomato [3]; leaf): 100 | Fresh weight, relative value (untreated plot = 100), Test 1 (tomato [3]; underground portion): 100 | Fresh weight, relative value (untreated plot = 100), Test 2 (tomato [3]; leaf): 100 | Fresh weight, relative value (untreated plot = 100), Test 2 (tomato [3]; underground portion): 100 | Fresh weight, relative value (untreated plot = 100), Test 3 (tomato [3]; leaf): 101 | Fresh weight, relative value (untreated plot = 100), Test 3 (tomato [3]; underground portion): 101 | Fresh weight, relative value (untreated plot = 100), Test 4 (tomato [3]; leaf): 101 | Fresh weight, relative value (untreated plot = 100), Test 4 (tomato [3]; underground portion): 100 | Extent of imparting plant stress tolerance [1, 4]: 102% | Extent of imparting plant stress tolerance ([1]; pF 2.5, leaf, 100 ppm once a week): 103% | Extent of imparting plant stress tolerance ([1]; pF 2.9, leaf, 100 ppm once a week): 103%

POE (20) sorbitan monolauric acid ester [Product of present invention 12]
Fresh weight, relative value (untreated plot = 100), Comparison 1 (tomato [2]; leaf): 101 | Fresh weight, relative value (untreated plot = 100), Test 1 (tomato [2]; leaf): 130 | Fresh weight, relative value (untreated plot = 100), Test 4 (tomato [2]; leaf): 148 | Fresh weight, relative value (untreated plot = 100), Test 2 (tomato [2]; leaf): 162 | Fresh weight, relative value (untreated plot = 100), Test 3 (tomato [2]; leaf): 135 | Extent of imparting plant stress tolerance (“Momotaro” tomato; 32° C., 100 ppm): 117% | Extent of imparting plant stress tolerance (“Momotaro” tomato; 32° C., 200 ppm): 121% | Fresh weight, relative value (untreated plot = 100), Comparison 1 (tomato [3]; leaf): 102 | Fresh weight, relative value (untreated plot = 100), Test 1 (tomato [3]; leaf): 124 | Fresh weight, relative value (untreated plot = 100), Test 2 (tomato [3]; leaf): 126 | Fresh weight, relative value (untreated plot = 100), Test 3 (tomato [3]; leaf): 144 | Fresh weight, relative value (untreated plot = 100), Test 4 (tomato [3]; leaf): 132 | Extent of imparting plant stress tolerance [1, 4]: 117% | Extent of imparting plant stress tolerance [1, 5]: 120%

POE (6) sorbitan monooleic acid ester [Product of present invention 10]
Extent of imparting plant stress tolerance (“Momotaro” tomato; 32° C., 100 ppm): 114% | Extent of imparting plant stress tolerance [1, 4]: 113%

Sorbitan monooleic acid ester [Product of present invention 11]
Extent of imparting plant stress tolerance (“Momotaro” tomato; 32° C., 100 ppm): 113% | Extent of imparting plant stress tolerance [1, 4]: 113%

Alkyl (C12-14) polyglycoside [Product of present invention 16]
Extent of imparting plant stress tolerance (“Momotaro” tomato; 32° C., 100 ppm): 116% | Extent of imparting plant stress tolerance [1, 4]: 121%

Sucrose fatty acid ester (C16, HLB = 15) [Product of present invention 21]
Extent of imparting plant stress tolerance (“Momotaro” tomato; 32° C., 100 ppm): 116% | Extent of imparting plant stress tolerance [1, 4]: 118%

POE (20) sorbitan monostearic acid ester [Product of present invention 14]
Extent of imparting plant stress tolerance (“Momotaro” tomato; 32° C., 100 ppm): 118% | Extent of imparting plant stress tolerance [1, 4]: 115%

Sucrose fatty acid ester (C18:1, HLB = 15) [Product of present invention 22]
Extent of imparting plant stress tolerance (“Momotaro” tomato; 32° C., 100 ppm): 115% | Extent of imparting plant stress tolerance (“Momotaro” tomato; 32° C., 200 ppm): 113% | Extent of imparting plant stress tolerance [1, 4]: 119% | Extent of imparting plant stress tolerance [1, 5]: 114%

POE (20) sorbitan monopalmitic acid ester [Product of present invention 13]
Extent of imparting plant stress tolerance (“Momotaro” tomato; 32° C., 100 ppm): 116% | Extent of imparting plant stress tolerance [1, 4]: 118%

Sucrose fatty acid ester (C18, HLB = 11) [Product of present invention 19]
Extent of imparting plant stress tolerance (“Momotaro” tomato; 32° C., 100 ppm): 114% | Extent of imparting plant stress tolerance [1, 4]: 117%
